Laboratory results published in patent US20170152258A9, “Substituted Pyridopyrazines as Syk Inhibitors” (HUTCHISON MEDIPHARMA LIMITED, priority 2012, published 2017).

Legend:
[1] = target: Syk kinase (Homo sapiens, UniProt P43405); experiment: SYK Enzymatic Assay (Z-LYTE Tyr 2 peptide); type: biochemical; details: 8 concentrations 1 μM down to 0.0003 μM
In short: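 Z-LYTE format using Tyr 2 peptide. After the 1 h room-temperature kinase reaction, development reagent was added for 1 h, then stop reagent. Fluorescence was read at 445 and 520 nm. Compounds were tested at 8 concentrations, 1 μM down to 0.0003 μM (1:3 dilutions).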

[2] = tested on: RBL-2H3 cells; experiment: IgE-induced Beta-hexosaminidase secretion in RBL-2H3 cells; type: cell-based; details: Rattus norvegicus, RBL-2H3, IgE-induced Beta-hexosaminidase secretion, DNP-BSA stimulation
Method: For the determination of IgE-induced Beta-hexosaminidase secretion, RBL-2H3 cells (SIBS) are seeded in 96 well plates at 4×10^4 cells per well and incubated in MEM media with 15% FBS and Glutamine ([…]) for 4 hours and sensitized with 0.5 ug/ml of SPE-7 overnight. Cells are washed 3 times with Tyrode's buffer and incubated in the presence or absence of various concentrations of the testing compound for 20 min at 37° C., 5% CO2. Cells are stimulated by adding 10 uL of DNP-BSA solution (150 ng/mL) to each well and incubating for 45 minutes at 37° C., 5% CO2. Then, 45 μL of the supernatant is taken and incubated with 100 μL of 1 mM 4-Nitrophenyl N-acetyl-β-D-glucosaminide (Sigma, Cat. No. N9376), which is diluted in 0.05 M citrate buffer (pH 4.5), for 1.5 hr at 37° C. The reactions are quenched by adding 185 μL of 0.05 M sodium carbonate buffer (pH 10.0). Plates are read at 405 nm on Multiskan (MK 3).

| IC50 [1] [nM] | IC50 [2] [nM] | Structure (SMILES) |
| --- | --- | --- |
| 24 | 107 | CC1(C)OCCc2cc(-c3cc4nccnc4c(OC[C@@H]4CN(C(N)=O)CCO4)n3)ccc21 [Compound 301] |
| 43 | 277 | NS(=O)(=O)N1CCO[C@H](COc2nc(-c3ccc(N4CCCC4)cc3)cc3nccnc23)C1 [Compound 30] |
| 55 | 99 | CC(=O)N1CCO[C@H](COc2nc(-c3ccc(C(C)(C)C)cc3)cc3nccnc23)C1 [Compound 254] |
| 98 | 127 | O=C(C(F)F)N1CCO[C@H](COc2nc(-c3ccc(C4CCOCC4)cc3)cc3nccnc23)C1 [Compound 9] |
| 17 | 174 | CC(C)(C(=O)O)c1ccc(-c2cc3nccnc3c(OC[C@@H]3CN(S(C)(=O)=O)CCO3)n2)cc1 [Compound 318] |
| 115 | 113 | CN1CCOC(COc2nc(-c3ccc(C(C)(C)O)cc3)cc3nccnc23)C1=O (stereo not drawn) [Compound 316] |
| 84 | 62 | CNC(=O)N1CCO[C@H](COc2nc(-c3ccc(N(C)C)c(F)c3)cc3nccnc23)C1 [Compound 184] |
| 40 | 88 | CN(C)c1ccc(-c2cc3nccnc3c(OC[C@@H]3CN(C(=O)CC#N)CCO3)n2)cc1 [Compound 76] |
| 19 | 63 | CN(C)c1ccc(-c2cc3nccnc3c(OC[C@@H]3CN(S(N)(=O)=O)CCO3)n2)cc1 [Compound 178] |
| 57 | 121 | O=C1C[C@H](COc2nc(-c3ccc(N4CCOCC4)cc3)cc3nccnc23)CN1 [Compound 223] |
| 69 | 873 | NS(=O)(=O)N1CCO[C@H](COc2nc(-c3ccc(C4(O)CCC4)cc3)cc3nccnc23)C1 [Compound 312] |
| 52 | 418 | CS(=O)(=O)N1CCC(c2ccc(-c3cc4nccnc4c(OC[C@@H]4CNC(=O)C4)n3)cc2)CC1 [Compound 261, (S)-4-(((7-(4-(1-(methylsulfonyl)piperidin-4-yl)phenyl)pyrido[3,4-b]pyrazin-5-yl)oxy)methyl)pyrrolidin-2-one] |
| 76 | 95 | CN(C)c1ccc(-c2cc3nccnc3c(OC[C@@H]3CN(C(N)=O)CCO3)n2)cc1F [Compound 183] |
| 50 | 241 | N#CC1(c2ccc(-c3cc4nccnc4c(OC[C@@H]4CN(S(N)(=O)=O)CCO4)n3)cc2)CC1 [Compound 293] |
| 16 | 20 | CN1CCc2cc(-c3cc4nccnc4c(OC[C@@H]4CN(S(C)(=O)=O)CCO4)n3)ccc21 [Compound 214] |
| 49 | 100 | Cc1cc(-c2cc3nccnc3c(OC[C@@H]3CN(C(=O)[C@H](C)O)CCO3)n2)ccc1N(C)C [Compound 201] |
| 58 | 77 | CN(C)c1ccc(-c2cc3nccnc3c(OC3CCCOC3)n2)cc1 (stereo not drawn) [Compound 127] |
| 55 | 97 | CNc1ccc(-c2cc3nccnc3c(OC[C@@H]3CN(S(C)(=O)=O)CCO3)n2)cc1 [Compound 36] |
| 26 | 90 | CCC(=O)N1CCO[C@H](COc2nc(-c3ccc(N(C)C)c(C)c3)cc3nccnc23)C1 [Compound 202] |
| 18 | 36 | COC(C)(C)c1ccc(-c2cc3nccnc3c(OC[C@@H]3CN(S(C)(=O)=O)CCO3)n2)cc1 [Compound 268] |
| 42 | 69 | CNC(=O)N1CCO[C@H](COc2nc(-c3ccc(C(C)(C)C#N)cc3)cc3nccnc23)C1 [Compound 249] |
| 16 | 34 | CCN(CC)c1ccc(-c2cc3nccnc3c(OC[C@@H]3CN(S(C)(=O)=O)CCO3)n2)cc1 [Compound 119] |
| 66 | 143 | Fc1cc(-c2cc3nccnc3c(O[C@@H]3CCOC3)n2)ccc1N1CCOCC1 [Compound 193] |
| 25 | 99 | CN(C)c1ccc(-c2cc3nccnc3c(OC[C@@H]3CN(C(N)=O)CCO3)n2)cc1 [Compound 136] |
